Reference: paper PMC10300102, “In vivo inhibition of nuclear ACE2 translocation protects against SARS-CoV-2 replication and lung damage through epigenetic imprinting” (Nature Communications, 2023)
Read-outs that look alike come from different tables or passages of the source. Where a SMILES comes first, the peptide text is derived from it. The star is where a group is joined. Myristoyl = CCCCCCCCCCCCCC(=O)*

Key:
[1] = system: ACE2, ACE2me, SARS-CoV-2 spike protein; parameters: species or system golden Syrian hamsters; settings: hamster, in vivo
SARS-CoV-2 = format: in vivo, golden Syrian hamsters
Mouse tolerance studies = format: in vivo, C57BL/6 J mice; parameters: Mouse organ weight - i.v. treatment, Brain / Mouse organ weight - i.v. treatment, Heart / Mouse organ weight - i.v. treatment, Kidney / Mouse organ weight - i.v. treatment, Liver / Mouse organ weight - i.v. treatment, Lungs / Mouse organ weight - i.v. treatment, Spleen: unit not given here; settings: for Mouse organ weight - i.v. treatment, Brain / Mouse organ weight - i.v. treatment, Heart / Mouse organ weight - i.v. treatment, Kidney / Mouse organ weight - i.v. treatment, Liver / Mouse organ weight - i.v. treatment, Lungs / Mouse organ weight - i.v. treatment, Spleen: S 1f, mean, N 5
Method: For NACE2i intraperitoneal (i.p.) studies, female C57BL/6 J mice (6-8 weeks, 3 per group) were treated with a single bolus dose of NACE2i at 3, 10, 30, or 100 mg/kg intraperitoneally for seven days. For NACE2i intravenous (i.v.) studies, male C57BL/6 J mice (6–8 weeks, 5 per group) were treated with daily bolus doses of either sodium chloride 0.9% vehicle or NACE2i at 3, 10, or 30 mg/kg intravenously for six days. For ACE2i studies, male C57BL/6 J mice (6 weeks, 5 per group) were treated with daily bolus doses of either saline vehicle or ACE2i at 10, 30, or 100 mg/kg intravenously or at 3, 10, and 30 mg/kg intranasally (i.n.) for six days. All treatments were administered on day 1, and all mice were observed and weighed daily prior to being euthanized for organ examination. All mice were purchased from the Animal Resources Centre (Canning Vale, Western Australia, Australia) and studies were carried out by Agilex Biolabs (St Lucia, Queensland, Australia). Animals were maintained in housing rooms under controlled environmental conditions: individually ventilated cages (IVCs) with a 12/12 light/dark cycle. The ambient temperature is set to 20–25 °C and relative humidity at 30-70% rH. The University of Queensland Animal Ethics Committee assessed and approved all studies (project code 2021/AE000659).

[2] = i.p. single bolus 10 mg/kg, n=3
[3] = i.p. single bolus 30 mg/kg, n=3
[4] = i.p. single bolus 100 mg/kg, n=3
[5] = i.v. daily for 6 days 3 mg/kg, n=5
[6] = i.v. daily for 6 days 10 mg/kg, n=5
[7] = i.v. daily for 6 days 30 mg/kg, n=5

## CCCCCCCCCCCCCC(=O)N[C@H](C(=O)NCC(=O)N[C@H](C(=O)N[C@@H](CCCNC(=N)N)C(=O)N[C@@H](CC(=O)O)C(=O)N[C@@H](CCCNC(=N)N)C(=O)N[C@@H](CCCCN)C(=O)N[C@@H](CCCCN)C(=O)N[C@@H](CCCCN)C(=O)N[C@@H](CC(N)=O)C(=O)N[C@@H](CCCCN)C(=O)N[C@@H](C)C(=O)N[C@@H](CCCNC(=N)N)C(=O)N[C@@H](CO)C(=O)O)[C@@H](C)CC)[C@@H](C)O [NACE2i] (Myristoyl-TGIRDRKKKNKARS-OH)
[1]
  ACE2me in the bronchioles: significantly upregulated
  Fn/c of ACE2: significantly reduced
  SARS-CoV-2 spike protein expression in bronchioles: significantly reduced or eliminated
  global ACE2 and proportion of ACE2+ cells: no significant change
  nuclear ACE2 expression in bronchiolar epithelial cells: significantly reduced
  proportion of cells co-expressing ACE2 and ACE2me: increased
SARS-CoV-2; hamster, in vivo
  viral RNA in the lungs: significant reductions
SARS-CoV-2; n=7, 15 mg/kg
  decrease in lung viral RNA normalized to vehicle controls: 88%
SARS-CoV-2; n=8, 100 mg/kg
  decrease in lung viral RNA normalized to vehicle controls: 96%
Mouse tolerance studies; IP route, 3 mg/kg, n = 3
  Diarrhoea - Mild (number of animals): 0
  No abnormalities (number of animals): 3
  Palpebral Closure - Mild (number of animals): 0
  Piloerection - Mild (number of animals): 0
  Reduced Activity - Mild (number of animals): 0
  Reduced Activity - Moderate (number of animals): 0
  Right limb raised - Mild (number of animals): 0
Mouse tolerance studies; IP route, 10 mg/kg, n = 3
  Diarrhoea - Mild (number of animals): 0
  No abnormalities (number of animals): 3
  Palpebral Closure - Mild (number of animals): 0
  Piloerection - Mild (number of animals): 0
  Reduced Activity - Mild (number of animals): 0
  Reduced Activity - Moderate (number of animals): 0
  Right limb raised - Mild (number of animals): 0
Mouse tolerance studies; IP route, 30 mg/kg, n = 3
  Diarrhoea - Mild (number of animals): 0
  No abnormalities (number of animals): 0
  Palpebral Closure - Mild (number of animals): 1
  Piloerection - Mild (number of animals): 0
  Reduced Activity - Mild (number of animals): 3
  Reduced Activity - Moderate (number of animals): 0
  Right limb raised - Mild (number of animals): 3
Mouse tolerance studies; IP route, 100 mg/kg, n = 3
  Diarrhoea - Mild (number of animals): 1
  No abnormalities (number of animals): 0
  Palpebral Closure - Mild (number of animals): 0
  Piloerection - Mild (number of animals): 2
  Reduced Activity - Mild (number of animals): 2
  Reduced Activity - Moderate (number of animals): 2
  Right limb raised - Mild (number of animals): 0
Mouse tolerance studies; IV route, 3 mg/kg, n = 5
  Hunched Posture - Mild (number of animals): 0
  No abnormalities (number of animals): 5
  Palpebral Closure - Mild (number of animals): 0
  Piloerection - Mild (number of animals): 0
  Reduced Activity - Mild (number of animals): 0
  Reduced Activity - Moderate (number of animals): 0
  Tremors - Mild (number of animals): 0
Mouse tolerance studies; IV route, 10 mg/kg, n = 5
  Hunched Posture - Mild (number of animals): 0
  No abnormalities (number of animals): 5
  Palpebral Closure - Mild (number of animals): 0
  Piloerection - Mild (number of animals): 0
  Reduced Activity - Mild (number of animals): 0
  Reduced Activity - Moderate (number of animals): 0
  Tremors - Mild (number of animals): 0
Mouse tolerance studies; IV route, 30 mg/kg, n = 5
  Hunched Posture - Mild (number of animals): 1
  No abnormalities (number of animals): 0
  Palpebral Closure - Mild (number of animals): 1
  Piloerection - Mild (number of animals): 0
  Reduced Activity - Mild (number of animals): 4
  Reduced Activity - Moderate (number of animals): 5
  Tremors - Mild (number of animals): 5
Mouse tolerance studies; i.v. 3 mg/kg
  Mouse organ weight - i.v. treatment, Brain: 452.46
  Mouse organ weight - i.v. treatment, Heart: 113.88
  Mouse organ weight - i.v. treatment, Kidney: 265.49
  Mouse organ weight - i.v. treatment, Liver: 1316.2
  Mouse organ weight - i.v. treatment, Lungs: 151.37
  Mouse organ weight - i.v. treatment, Spleen: 70.61
Mouse tolerance studies; i.v. 10 mg/kg
  Mouse organ weight - i.v. treatment, Brain: 451.76
  Mouse organ weight - i.v. treatment, Heart: 110.14
  Mouse organ weight - i.v. treatment, Kidney: 258.06
  Mouse organ weight - i.v. treatment, Liver: 1432.4
  Mouse organ weight - i.v. treatment, Lungs: 140.86
  Mouse organ weight - i.v. treatment, Spleen: 79.75
Mouse tolerance studies; i.v. 30 mg/kg
  Mouse organ weight - i.v. treatment, Brain: 422.35
  Mouse organ weight - i.v. treatment, Heart: 102.55
  Mouse organ weight - i.v. treatment, Kidney: 221.42
  Mouse organ weight - i.v. treatment, Liver: 1090.2
  Mouse organ weight - i.v. treatment, Lungs: 130.37
  Mouse organ weight - i.v. treatment, Spleen: 68.35
Mouse tolerance studies; female C57BL/6 J mice, single i.p. bolus up to 100 mg/kg, seven days
  body weight: without significant changes in body weight
Mouse tolerance studies; i.p. single bolus 3 mg/kg, n=3
  Diarrhoea, mild (number of mice): 0
  No abnormalities (number of mice): 3
  Palpebral closure, mild (number of mice): 0
  Piloerection, mild (number of mice): 0
  Reduced activity, mild (number of mice): 0
  Reduced activity, moderate (number of mice): 0
  Right limb raised, mild (number of mice): 0
Mouse tolerance studies; [2]
  Diarrhoea, mild (number of mice): 0
  No abnormalities (number of mice): 3
  Palpebral closure, mild (number of mice): 0
  Piloerection, mild (number of mice): 0
  Reduced activity, mild (number of mice): 0
  Reduced activity, moderate (number of mice): 0
  Right limb raised, mild (number of mice): 0
Mouse tolerance studies; [3]
  Diarrhoea, mild (number of mice): 0
  No abnormalities (number of mice): 0
  Palpebral closure, mild (number of mice): 1
  Piloerection, mild (number of mice): 0
  Reduced activity, mild (number of mice): 3
  Reduced activity, moderate (number of mice): 0
  Right limb raised, mild (number of mice): 3
Mouse tolerance studies; [4]
  Diarrhoea, mild (number of mice): 1
  No abnormalities (number of mice): 0
  Palpebral closure, mild (number of mice): 0
  Piloerection, mild (number of mice): 2
  Reduced activity, mild (number of mice): 2
  Reduced activity, moderate (number of mice): 2
  Right limb raised, mild (number of mice): 0
Mouse tolerance studies; [5]
  Hunched posture, mild (number of mice): 0
  No abnormalities (number of mice): 5
  Palpebral closure, mild (number of mice): 0
  Piloerection, mild (number of mice): 0
  Reduced activity, mild (number of mice): 0
  Reduced activity, moderate (number of mice): 0
  Tremors, mild (number of mice): 0
Mouse tolerance studies; [6]
  Hunched posture, mild (number of mice): 0
  No abnormalities (number of mice): 5
  Palpebral closure, mild (number of mice): 0
  Piloerection, mild (number of mice): 0
  Reduced activity, mild (number of mice): 0
  Reduced activity, moderate (number of mice): 0
Mouse tolerance studies; [7]
  Hunched posture, mild (number of mice): 1
  No abnormalities (number of mice): 0
  Palpebral closure, mild (number of mice): 1
  Piloerection, mild (number of mice): 0
  Reduced activity, mild (number of mice): 4
  Reduced activity, moderate (number of mice): 5
  Tremors, mild (number of mice): 5
Mouse tolerance studies; male C57BL/6 J mice, daily i.v. bolus up to 30 mg/kg for six days
  body or organ weight: without significant changes in body or organ weight
